From patent US10231954B2, “Neurodegenerative therapies” (LYTIX BIOPHARMA AS, priority 2014, dated 2019)
Like-named read-outs stand apart in the source and are kept apart here.

What was measured:
DYRK1A = DYRK1A (Homo sapiens, UniProt Q13627); assay: Determination of IC50 values against DYRK1a; format: biochemical; settings: average of duplicate; 10 concentrations 100 μM to 0.003 μM; read-out: IC 50 against DYRK1a
Experimental: The kinase assay was carried out using Multidrop 384's at room temperature in a total assay volume of 25.5 μl. To plates containing 0.5 μl of compounds, DMSO controls or acid blanks, 15 μl of an enzyme mix containing the DYRK1a enzyme and peptide/protein substrate in buffer was added. Compounds were pre-incubated in the presence of the enzyme and peptide/protein substrate for 5 minutes before initiation of the reaction by addition of 10 μl of ATP (final concentration selected for each kinase at 5, 20 or 50 μM). Assays were carried out for 30 minutes at room temperature before termination by the addition of 5 μl orthophosphoric acid. The assay plates were then harvested onto P81 Unifilter Plates by a Packard Harvester (wash buffer is 50 mM orthophosphoric acid) and dried in air. The dry Unifilter plates were then sealed by the addition of MicroScint O and counted in Packard Topcount NXT scintillation counters.

ULK2 = target: T1, ULK2 (Homo sapiens, UniProt Q8IYT8); assay: Kinase profiling ULK2; format: biochemical; settings: for remaining activity at 100 µM: read-out: residual kinase activity, ULK2
T1 sequence (Q8IYT8 1-1036): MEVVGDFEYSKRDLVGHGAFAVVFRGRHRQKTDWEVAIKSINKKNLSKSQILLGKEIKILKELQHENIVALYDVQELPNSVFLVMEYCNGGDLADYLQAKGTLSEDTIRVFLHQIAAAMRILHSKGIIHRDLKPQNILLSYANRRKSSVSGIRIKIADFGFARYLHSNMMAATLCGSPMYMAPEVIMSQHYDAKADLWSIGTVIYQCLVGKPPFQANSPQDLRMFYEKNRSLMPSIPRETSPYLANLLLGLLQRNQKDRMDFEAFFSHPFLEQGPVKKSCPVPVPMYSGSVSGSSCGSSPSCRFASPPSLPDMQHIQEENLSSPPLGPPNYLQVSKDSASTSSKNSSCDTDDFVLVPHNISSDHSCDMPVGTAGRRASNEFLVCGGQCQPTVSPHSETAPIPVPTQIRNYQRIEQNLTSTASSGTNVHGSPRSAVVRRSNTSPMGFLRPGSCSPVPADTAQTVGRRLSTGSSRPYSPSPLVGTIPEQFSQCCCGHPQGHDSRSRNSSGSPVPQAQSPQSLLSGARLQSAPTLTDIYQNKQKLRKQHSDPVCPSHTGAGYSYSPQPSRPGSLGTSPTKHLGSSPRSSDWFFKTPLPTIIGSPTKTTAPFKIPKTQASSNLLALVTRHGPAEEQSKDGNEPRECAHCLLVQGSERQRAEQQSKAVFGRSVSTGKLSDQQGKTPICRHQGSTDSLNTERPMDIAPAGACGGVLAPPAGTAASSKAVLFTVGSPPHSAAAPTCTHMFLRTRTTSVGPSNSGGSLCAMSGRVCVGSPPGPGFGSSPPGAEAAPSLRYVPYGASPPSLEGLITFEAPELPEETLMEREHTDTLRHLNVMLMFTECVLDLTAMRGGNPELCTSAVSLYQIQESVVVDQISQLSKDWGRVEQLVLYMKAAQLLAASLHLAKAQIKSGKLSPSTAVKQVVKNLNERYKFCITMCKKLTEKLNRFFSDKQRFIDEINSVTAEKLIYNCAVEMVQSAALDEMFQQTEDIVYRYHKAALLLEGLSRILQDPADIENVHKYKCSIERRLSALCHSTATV
From the text: Any value less that 25 is considered to be highly significant inhibition.

[1] = 100 micromolar inhibitor concentration, 100 is no change

SMILES | IC50 (DYRK1A) | residual kinase activity, ULK2 (ULK2; [1]) | further results
CC(=O)Nc1nc2cc(O)ccc2s1 [Compound 01-66, N-(5-hydroxybenzo[d]thiazol-2-yl)acetamide] | 800 nM | – | –
CC(=O)Nc1nc2ccc(O)cc2s1 [Compound 01-71] | 28100 nM | – | –
CC(=O)Nc1nc2ccc(C(F)(F)F)cc2s1 [Compound 01-90] | 1100 nM | – | remaining activity at 100 µM (ULK2; [1]): 78%
CC(=O)Nc1nc2ccc(C#N)cc2s1 [Compound 01-94] | 1300 nM | – | remaining activity at 100 µM (ULK2; [1]): 68%
CC(=O)Nc1cccc(NC(=O)c2nc3ccc(O)cc3s2)c1 [Compound 03-07, N-(3-acetamidophenyl)-6-hydroxybenzo[d]thiazole-2-carboxamide] | – | – | remaining activity at 100 µM (ULK2; 100 micromolar inhibitor, 100 = no change): 81%
O=C(Nc1nc2cc(O)ccc2s1)c1ccncc1 [Compound 03-11] | – | 86 | –
O=C(Nc1nc2ccc(O)cc2s1)c1ccccn1 [Compound 03-12] | – | 87 | –
O=C(Nc1nc2cc(O)ccc2s1)c1ccccn1 [Compound 03-13] | – | 56 | –
COc1ccc2sc(NC(C)=O)nc2c1 [Compound 03-21] | 400 nM | – | remaining activity at 100 µM (ULK2; [1]): 86%
CC(=O)Nc1nc2ccccc2s1 [Compound 03-32] | – | 92 | –
O=C(Nc1nc2cc(O)ccc2s1)c1cccnc1 [Compound 03-33] | – | 85 | –
O=C(Nc1nc2ccc(O)cc2s1)c1ccccc1 [Compound 03-60] | – | 69 | –
CC(=O)Nc1nc2cc(C(F)(F)F)ccc2s1 [Compound 03-73] | 26500 nM | – | remaining activity at 100 µM (ULK2; [1]): 88%
CC(=O)Nc1nc2cc(C)ccc2s1 [Compound 03-76] | – | 88 | –
CC(=O)Nc1nc2cc(F)ccc2s1 [Compound 03-77] | 3900 nM | – | remaining activity at 100 µM (ULK2; [1]): 83%
CC(=O)Nc1nc2ccc(F)cc2s1 [Compound 03-94] | 23600 nM | – | –
O=C(Nc1nc2ccc(O)cc2s1)c1ccncc1 [Compound 08-42] | – | 63 | –
O=C(Nc1nc2ccc(O)cc2s1)c1cccnc1 [Compound 08-44] | – | 84 | –
CC(=O)Nc1nc2ccc([N+](=O)[O-])cc2s1 [Compound 13-10] | 700 nM | – | –
